Test results from ChEMBL document CHEMBL1201862, “PubChem BioAssay data set” (2004).
The source made the active and inactive calls.

Tests used:
[1] = target: Nuclear receptor subfamily 5 group A member 2 (Homo sapiens, UniProt O00482); assay type: functional, cell-based;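 also: HEK293T cells transfected with LRH-1 and a StAR promoter luciferase reporter; potency for inhibitors that lower LRH-1 driven reporter light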
[2] = StAR promoter reporter inhibition counter-screen, dose response, counter-screen for LRH-1 inverse agonist project, cell-based, luminescence, luciferase reporter (AID 651969); assay type: functional
Steroidogenic factor 1 = Steroidogenic factor 1 (Homo sapiens, UniProt Q13285); experiment: Counterscreen for inverse agonists of the liver receptor homolog-1 (LRH-1; NR5A2): Luminescence-based cell-based high throughput dose response assay to identify inverse agonists of the Steroidogenic Factor 1 Nuclear Receptor (SF1; NR5A1).; assay type: functional
Sequence of Steroidogenic factor 1 (Q13285 whole entry, the tested form may be a part): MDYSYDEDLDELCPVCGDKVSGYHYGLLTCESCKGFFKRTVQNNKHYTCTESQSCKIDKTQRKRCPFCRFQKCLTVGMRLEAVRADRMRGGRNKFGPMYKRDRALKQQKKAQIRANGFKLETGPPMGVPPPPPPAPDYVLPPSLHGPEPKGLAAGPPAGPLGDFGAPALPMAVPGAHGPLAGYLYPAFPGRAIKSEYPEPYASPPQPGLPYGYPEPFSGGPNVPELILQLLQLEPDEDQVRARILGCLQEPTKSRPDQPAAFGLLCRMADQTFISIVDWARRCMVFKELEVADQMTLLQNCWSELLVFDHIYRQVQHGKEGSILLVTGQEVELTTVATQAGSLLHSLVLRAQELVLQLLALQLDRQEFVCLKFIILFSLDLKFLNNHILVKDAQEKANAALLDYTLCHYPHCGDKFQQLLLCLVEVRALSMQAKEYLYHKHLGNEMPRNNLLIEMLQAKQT

[3] = target: T1, Tyrosine-protein phosphatase non-receptor type 22 (Homo sapiens, UniProt Q9Y2R2); experiment: LYP phosphatase inhibition for selectivity, dose response, selectivity assay for LMPTP inhibitor project, biochemical, fluorescence, LYP catalytic domain (AID 652006); assay type: functional; settings: read-out: IC50_Mean
T1 sequence (Q9Y2R2 whole entry): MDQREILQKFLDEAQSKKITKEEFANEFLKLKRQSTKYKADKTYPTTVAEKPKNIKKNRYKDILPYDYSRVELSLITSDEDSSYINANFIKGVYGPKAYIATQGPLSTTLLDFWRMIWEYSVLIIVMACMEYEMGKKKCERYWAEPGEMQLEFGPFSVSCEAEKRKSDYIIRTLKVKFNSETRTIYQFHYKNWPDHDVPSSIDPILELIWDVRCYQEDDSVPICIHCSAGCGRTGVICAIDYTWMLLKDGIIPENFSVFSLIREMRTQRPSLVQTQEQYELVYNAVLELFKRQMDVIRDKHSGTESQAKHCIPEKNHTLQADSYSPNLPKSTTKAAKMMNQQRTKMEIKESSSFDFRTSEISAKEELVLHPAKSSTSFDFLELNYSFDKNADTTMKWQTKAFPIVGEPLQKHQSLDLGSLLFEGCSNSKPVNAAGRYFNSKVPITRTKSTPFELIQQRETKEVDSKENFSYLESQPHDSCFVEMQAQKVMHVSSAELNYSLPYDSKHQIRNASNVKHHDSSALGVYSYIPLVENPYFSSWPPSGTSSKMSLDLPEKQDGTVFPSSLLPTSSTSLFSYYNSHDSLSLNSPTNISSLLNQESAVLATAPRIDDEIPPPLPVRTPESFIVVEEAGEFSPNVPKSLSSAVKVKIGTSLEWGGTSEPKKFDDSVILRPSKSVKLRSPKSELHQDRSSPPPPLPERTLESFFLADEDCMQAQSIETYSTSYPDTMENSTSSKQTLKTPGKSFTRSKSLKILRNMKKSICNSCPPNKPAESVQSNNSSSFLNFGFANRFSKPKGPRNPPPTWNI

[4] = target: T2, Low molecular weight phosphotyrosine protein phosphatase (Homo sapiens, UniProt P24666); assay type: functional; settings: read-out: IC50_Mean
T2 sequence (P24666 whole entry): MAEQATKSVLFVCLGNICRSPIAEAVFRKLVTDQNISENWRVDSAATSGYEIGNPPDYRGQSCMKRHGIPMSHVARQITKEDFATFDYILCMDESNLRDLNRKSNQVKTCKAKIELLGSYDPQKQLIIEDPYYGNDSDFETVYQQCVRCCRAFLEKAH

[5] = target: T2, Low molecular weight phosphotyrosine protein phosphatase; assay type: functional; settings: read-out: IC50_Mean; remark: listed apart in the source
[6] = target: T3, Methionyl-tRNA synthetase, putative (Trypanosoma brucei brucei, UniProt Q38C91); assay type: functional, Trypanosoma brucei brucei strain 927/4 GUTat10.1
T3 sequence (Q38C91 whole entry): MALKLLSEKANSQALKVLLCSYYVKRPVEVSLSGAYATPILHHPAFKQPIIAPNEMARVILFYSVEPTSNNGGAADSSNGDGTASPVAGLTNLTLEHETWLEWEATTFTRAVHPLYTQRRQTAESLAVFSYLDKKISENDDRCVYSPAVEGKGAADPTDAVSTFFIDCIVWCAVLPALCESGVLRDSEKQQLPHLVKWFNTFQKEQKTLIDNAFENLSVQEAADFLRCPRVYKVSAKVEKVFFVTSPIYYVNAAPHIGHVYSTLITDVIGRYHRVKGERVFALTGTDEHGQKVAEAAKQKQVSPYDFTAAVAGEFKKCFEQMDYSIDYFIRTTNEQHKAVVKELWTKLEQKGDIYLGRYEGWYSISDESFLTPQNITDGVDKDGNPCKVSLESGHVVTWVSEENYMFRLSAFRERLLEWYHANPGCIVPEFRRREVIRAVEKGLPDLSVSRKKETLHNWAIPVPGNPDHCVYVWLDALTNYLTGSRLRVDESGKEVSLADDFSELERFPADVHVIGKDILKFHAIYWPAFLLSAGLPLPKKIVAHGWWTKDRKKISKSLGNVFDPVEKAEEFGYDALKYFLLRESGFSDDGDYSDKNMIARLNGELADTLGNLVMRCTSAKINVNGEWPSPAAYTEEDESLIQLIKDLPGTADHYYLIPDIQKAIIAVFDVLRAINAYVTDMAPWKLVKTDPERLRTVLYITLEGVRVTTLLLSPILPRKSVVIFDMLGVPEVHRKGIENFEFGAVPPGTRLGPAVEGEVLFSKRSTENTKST

[7] = Counterscreen for inhibitors of Trypanosoma brucei methionyl tRNA synthetase (MetRS): Luminescence-based cell-based high throughput dose response assay to identify compounds that are cytotoxic to Jurkat human T lymphocyte cells.; assay type: functional
[8] = target: T3, Methionyl-tRNA synthetase, putative; assay type: functional, Trypanosoma brucei brucei strain 927/4 GUTat10.1; remark: listed apart in the source
INS1 = experiment: beta cell apoptosis inhibitors, cytokine rescue, dose response, luminescence, retest (AID 449756); assay type: functional, cell-based; settings: Rattus norvegicus;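 also: cell death triggered by IL-1 beta plus TNF-alpha plus IFN-gamma mixture; protective hits raise ATP signal compared with cytokine alone wells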
[9] = target: T4, Replicative DNA helicase DnaB (Mycobacterium tuberculosis, UniProt P9WMR3); experiment: DnaB intein splicing inhibitors, dose response, biochemical, cell-free fluorescence (AID 449749); assay type: functional
T4 sequence (P9WMR3 whole entry): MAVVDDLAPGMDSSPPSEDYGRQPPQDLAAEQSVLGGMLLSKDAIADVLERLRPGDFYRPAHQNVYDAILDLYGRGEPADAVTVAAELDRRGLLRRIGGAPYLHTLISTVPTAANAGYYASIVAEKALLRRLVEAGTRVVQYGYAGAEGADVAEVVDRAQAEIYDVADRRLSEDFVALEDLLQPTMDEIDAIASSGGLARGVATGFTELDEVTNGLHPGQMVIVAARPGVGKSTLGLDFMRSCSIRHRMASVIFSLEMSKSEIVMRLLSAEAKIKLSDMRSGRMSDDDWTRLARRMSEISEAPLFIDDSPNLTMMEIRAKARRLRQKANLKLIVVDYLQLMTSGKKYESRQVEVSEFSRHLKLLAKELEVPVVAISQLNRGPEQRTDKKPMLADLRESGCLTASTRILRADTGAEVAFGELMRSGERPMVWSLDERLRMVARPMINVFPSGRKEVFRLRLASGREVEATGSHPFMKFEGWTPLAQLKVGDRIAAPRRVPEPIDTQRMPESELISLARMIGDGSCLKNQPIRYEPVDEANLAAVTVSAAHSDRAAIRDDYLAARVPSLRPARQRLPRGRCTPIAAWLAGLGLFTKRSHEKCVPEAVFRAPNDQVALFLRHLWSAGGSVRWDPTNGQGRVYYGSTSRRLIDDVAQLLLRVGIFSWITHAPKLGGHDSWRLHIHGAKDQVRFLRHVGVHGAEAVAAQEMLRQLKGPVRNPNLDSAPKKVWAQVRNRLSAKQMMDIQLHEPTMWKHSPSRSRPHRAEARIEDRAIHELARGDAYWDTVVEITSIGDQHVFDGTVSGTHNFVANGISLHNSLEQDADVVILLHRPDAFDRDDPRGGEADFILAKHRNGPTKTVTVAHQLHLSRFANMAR

[10] = Fluorescence-based cell-based high throughput dose response assay for inhibitors of the interaction of nucleotide-binding oligomerization domain containing 2 (NOD2) and the receptor-interacting serine-threonine kinase 2 (RIPK2).; assay type: functional; settings: Homo sapiens
[11] = target: Neurotensin receptor type 1 (Homo sapiens, UniProt P30989); assay type: functional;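 also: Image-based confirmatory dose-response assay measuring agonist activity at NTR1; NTR1-expressing U2OS osteosarcoma cells imaged for beta-arrestin GFP spot formation; agonist potency where compounds increase beta-arrestin recruitment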
Sequence of Neurotensin receptor type 1 (P30989 whole entry): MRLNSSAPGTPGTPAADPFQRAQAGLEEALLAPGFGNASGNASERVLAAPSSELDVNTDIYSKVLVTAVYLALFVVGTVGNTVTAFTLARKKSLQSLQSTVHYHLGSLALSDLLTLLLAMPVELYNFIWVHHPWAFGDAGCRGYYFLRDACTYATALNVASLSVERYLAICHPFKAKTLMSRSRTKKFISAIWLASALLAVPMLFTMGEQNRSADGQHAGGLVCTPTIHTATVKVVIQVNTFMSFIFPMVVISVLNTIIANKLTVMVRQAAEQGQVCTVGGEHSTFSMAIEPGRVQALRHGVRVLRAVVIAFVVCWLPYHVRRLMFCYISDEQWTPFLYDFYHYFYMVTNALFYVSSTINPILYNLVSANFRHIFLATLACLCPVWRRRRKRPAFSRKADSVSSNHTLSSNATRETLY

Beta Lactamase = Beta Lactamase (Pseudomonas aeruginosa, UniProt Q932Y6); experiment: beta-lactamase reporter inhibitor potency, dose response, artefact control for NOD2-RIPK2 interaction inhibitor project, BLA reporter cells, FRET fluorescence (AID 651552); assay type: functional, cell-based
Sequence of Beta Lactamase (Q932Y6 whole entry): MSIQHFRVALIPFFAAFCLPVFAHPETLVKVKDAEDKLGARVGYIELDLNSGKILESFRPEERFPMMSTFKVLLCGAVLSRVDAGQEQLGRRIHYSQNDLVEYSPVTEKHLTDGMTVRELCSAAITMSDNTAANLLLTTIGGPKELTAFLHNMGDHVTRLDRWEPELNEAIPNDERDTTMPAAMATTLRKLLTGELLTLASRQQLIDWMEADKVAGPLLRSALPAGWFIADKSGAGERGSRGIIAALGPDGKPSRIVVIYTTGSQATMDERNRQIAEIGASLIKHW

Protein RecA = target: T5, Protein RecA (Mycobacterium tuberculosis, UniProt P9WHJ3); experiment: Fluorescence Cell-Free Homogeneous Dose Retest to Identify Inhibitors of RecA-Intein Splicing Activity. [Related pubchem assays (depositor defined):AID2097, AID2223, AID489010, AID492950]; assay type: functional
T5 sequence (P9WHJ3 whole entry): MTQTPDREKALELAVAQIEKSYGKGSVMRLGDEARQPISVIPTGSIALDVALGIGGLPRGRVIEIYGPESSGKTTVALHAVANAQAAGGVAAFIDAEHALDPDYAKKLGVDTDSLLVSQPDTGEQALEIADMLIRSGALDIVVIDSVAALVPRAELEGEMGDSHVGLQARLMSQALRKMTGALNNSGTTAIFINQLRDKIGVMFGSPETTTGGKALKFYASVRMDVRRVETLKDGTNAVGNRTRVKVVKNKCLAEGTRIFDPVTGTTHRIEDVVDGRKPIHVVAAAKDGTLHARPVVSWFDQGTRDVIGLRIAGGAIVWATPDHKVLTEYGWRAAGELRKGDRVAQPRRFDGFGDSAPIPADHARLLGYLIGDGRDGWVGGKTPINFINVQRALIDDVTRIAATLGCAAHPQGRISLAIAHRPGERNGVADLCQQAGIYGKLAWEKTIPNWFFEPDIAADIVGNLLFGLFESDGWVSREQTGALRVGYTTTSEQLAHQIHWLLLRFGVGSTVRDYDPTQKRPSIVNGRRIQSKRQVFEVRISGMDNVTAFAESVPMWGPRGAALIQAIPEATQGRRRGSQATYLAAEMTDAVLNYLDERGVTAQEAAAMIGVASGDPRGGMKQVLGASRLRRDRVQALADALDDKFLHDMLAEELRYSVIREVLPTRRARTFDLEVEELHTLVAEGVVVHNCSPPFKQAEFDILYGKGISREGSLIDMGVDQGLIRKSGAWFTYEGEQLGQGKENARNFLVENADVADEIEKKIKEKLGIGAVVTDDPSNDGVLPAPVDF

[12] = target: T6, Heat shock factor protein 1 (Mus musculus, UniProt P38532); experiment: inhibition of MG132-induced HSE-luciferase signal, confirmation, cell-based, NIH3T3, luminescence, dose retest (AID 2382); assay type: functional;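 also: NIH3T3 fibroblasts with HSF1-driven luciferase reporter stressed by proteasome inhibitor MG132; luminescence from HSF1-driven luciferase expression after 8 hours of MG132 stress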
T6 sequence (P38532 whole entry): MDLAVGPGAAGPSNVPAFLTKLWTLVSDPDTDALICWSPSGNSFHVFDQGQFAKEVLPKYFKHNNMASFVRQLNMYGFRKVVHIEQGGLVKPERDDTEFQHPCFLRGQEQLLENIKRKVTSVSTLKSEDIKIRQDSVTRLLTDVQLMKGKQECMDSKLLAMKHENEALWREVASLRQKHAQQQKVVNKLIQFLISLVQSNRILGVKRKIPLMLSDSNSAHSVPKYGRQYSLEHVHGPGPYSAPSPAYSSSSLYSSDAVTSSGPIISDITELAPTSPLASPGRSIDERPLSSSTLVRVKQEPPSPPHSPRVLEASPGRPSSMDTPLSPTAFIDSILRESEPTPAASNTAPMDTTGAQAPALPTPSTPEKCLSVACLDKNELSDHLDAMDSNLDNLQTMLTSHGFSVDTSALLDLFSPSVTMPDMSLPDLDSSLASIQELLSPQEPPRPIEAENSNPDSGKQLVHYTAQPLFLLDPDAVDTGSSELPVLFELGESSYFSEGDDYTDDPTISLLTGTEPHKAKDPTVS

Mu-type opioid receptor = Mu-type opioid receptor (Homo sapiens, UniProt P35372); experiment: HTS Image-Based Screen for Agonists of the MOR Receptor. [Related pubchem assays (depositor defined):AID1777, AID1785, AID1786, AID2133]; assay type: functional;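 also: imaging of beta-arrestin GFP recruitment into spots after receptor activation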
Sequence of Mu-type opioid receptor (P35372 whole entry): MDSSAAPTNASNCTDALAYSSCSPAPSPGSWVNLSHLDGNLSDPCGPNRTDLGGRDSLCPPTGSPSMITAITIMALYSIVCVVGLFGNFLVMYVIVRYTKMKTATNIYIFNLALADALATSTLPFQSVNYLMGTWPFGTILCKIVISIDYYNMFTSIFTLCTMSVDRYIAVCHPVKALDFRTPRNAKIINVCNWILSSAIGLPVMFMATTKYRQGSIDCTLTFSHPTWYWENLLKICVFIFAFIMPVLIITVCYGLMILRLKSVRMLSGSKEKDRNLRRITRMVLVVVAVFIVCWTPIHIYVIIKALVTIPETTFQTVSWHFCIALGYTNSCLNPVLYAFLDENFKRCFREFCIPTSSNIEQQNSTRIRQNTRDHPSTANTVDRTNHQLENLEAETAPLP

[13] = target: T7, Delta-type opioid receptor (Homo sapiens, UniProt P41143); experiment: HTS Image-Based Screen for Antagonists of the DOR Receptor. [Related pubchem assays (depositor defined):AID1777, AID1785, AID1786, AID2133]; assay type: functional
T7 sequence (P41143 whole entry): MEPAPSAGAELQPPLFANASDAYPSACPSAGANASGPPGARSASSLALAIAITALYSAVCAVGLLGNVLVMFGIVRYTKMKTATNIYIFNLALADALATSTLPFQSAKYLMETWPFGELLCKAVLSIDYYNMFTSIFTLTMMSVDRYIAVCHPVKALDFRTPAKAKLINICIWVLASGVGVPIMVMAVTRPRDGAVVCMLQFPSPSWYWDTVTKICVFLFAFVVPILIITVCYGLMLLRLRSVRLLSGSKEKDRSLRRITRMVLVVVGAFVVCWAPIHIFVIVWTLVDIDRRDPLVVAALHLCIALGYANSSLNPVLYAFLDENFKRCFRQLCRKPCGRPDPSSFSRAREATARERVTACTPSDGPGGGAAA

[14] = target: T8, Rac GTPase-activating protein 1 (Homo sapiens, UniProt Q9H0H5); experiment: MgcRacGAP GTPase-activating activity inhibitors, confirmation, biochemical, ADP Hunter fluorescence, primary and confirmatory (AID 624330); assay type: functional
T8 sequence (Q9H0H5 whole entry): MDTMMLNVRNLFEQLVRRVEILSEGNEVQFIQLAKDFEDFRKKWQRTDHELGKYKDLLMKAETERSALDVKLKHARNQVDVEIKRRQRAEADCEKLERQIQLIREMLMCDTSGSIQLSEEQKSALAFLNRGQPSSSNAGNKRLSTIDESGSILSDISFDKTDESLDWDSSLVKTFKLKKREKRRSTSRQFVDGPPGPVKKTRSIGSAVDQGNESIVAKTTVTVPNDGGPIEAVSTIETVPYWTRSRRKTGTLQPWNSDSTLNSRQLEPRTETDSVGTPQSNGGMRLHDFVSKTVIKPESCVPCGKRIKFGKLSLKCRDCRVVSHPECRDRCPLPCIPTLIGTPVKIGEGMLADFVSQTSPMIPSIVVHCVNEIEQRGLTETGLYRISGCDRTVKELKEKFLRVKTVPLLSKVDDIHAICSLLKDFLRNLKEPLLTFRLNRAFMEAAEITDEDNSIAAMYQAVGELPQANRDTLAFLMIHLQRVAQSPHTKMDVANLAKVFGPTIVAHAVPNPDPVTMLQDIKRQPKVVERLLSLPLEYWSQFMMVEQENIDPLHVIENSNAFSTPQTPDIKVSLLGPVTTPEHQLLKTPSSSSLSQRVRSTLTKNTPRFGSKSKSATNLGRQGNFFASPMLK

[15] = target: T7, Delta-type opioid receptor; experiment: HTS Image-Based Screen for Agonists of the DOR Receptor. [Related pubchem assays (depositor defined):AID1777, AID1786, AID2133]; assay type: functional
[16] = HeLa cell cytotoxicity, dose response, cytotoxicity control for MgcRacGAP inhibitor project (AID 624300); assay type: functional
[17] = target: T9, Kappa-type opioid receptor (Homo sapiens, UniProt P41145); assay type: functional
T9 sequence (P41145 whole entry): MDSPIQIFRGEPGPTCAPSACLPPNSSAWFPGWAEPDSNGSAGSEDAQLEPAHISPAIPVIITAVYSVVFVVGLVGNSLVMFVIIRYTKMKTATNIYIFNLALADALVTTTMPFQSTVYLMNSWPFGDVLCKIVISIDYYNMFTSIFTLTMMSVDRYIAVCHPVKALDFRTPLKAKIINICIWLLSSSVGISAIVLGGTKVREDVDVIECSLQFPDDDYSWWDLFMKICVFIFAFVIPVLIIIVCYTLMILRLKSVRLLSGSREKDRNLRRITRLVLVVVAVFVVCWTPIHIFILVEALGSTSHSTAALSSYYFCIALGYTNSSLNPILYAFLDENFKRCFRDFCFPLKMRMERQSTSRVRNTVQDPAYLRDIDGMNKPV

Beta-galactosidase = Beta-galactosidase (Escherichia coli, UniProt Q8VNN2); assay type: functional
Sequence of Beta-galactosidase (Q8VNN2 whole entry): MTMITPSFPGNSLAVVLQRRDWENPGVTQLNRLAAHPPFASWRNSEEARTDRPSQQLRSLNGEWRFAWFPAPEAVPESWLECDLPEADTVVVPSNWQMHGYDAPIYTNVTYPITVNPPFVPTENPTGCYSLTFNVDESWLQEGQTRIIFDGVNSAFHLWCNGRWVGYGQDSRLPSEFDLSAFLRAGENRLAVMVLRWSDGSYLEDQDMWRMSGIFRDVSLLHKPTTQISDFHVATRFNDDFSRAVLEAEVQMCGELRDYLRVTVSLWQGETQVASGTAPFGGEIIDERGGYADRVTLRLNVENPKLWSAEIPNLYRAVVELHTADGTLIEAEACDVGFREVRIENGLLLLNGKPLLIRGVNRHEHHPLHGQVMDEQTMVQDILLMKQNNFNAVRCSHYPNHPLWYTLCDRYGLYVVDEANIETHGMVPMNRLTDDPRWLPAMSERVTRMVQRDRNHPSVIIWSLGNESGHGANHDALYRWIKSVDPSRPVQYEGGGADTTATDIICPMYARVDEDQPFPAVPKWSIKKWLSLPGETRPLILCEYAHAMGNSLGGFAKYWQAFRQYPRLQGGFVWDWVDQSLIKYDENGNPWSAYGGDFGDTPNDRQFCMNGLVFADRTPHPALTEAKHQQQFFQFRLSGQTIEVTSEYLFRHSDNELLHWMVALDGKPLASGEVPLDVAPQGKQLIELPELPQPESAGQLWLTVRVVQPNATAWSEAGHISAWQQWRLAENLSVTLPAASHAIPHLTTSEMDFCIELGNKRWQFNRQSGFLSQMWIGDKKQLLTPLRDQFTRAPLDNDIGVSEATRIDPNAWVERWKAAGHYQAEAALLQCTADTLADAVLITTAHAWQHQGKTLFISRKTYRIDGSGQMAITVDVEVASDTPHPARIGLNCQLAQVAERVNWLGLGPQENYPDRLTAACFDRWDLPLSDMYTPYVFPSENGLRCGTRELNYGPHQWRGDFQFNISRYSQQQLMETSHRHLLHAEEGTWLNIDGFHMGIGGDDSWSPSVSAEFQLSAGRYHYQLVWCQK

[18] = target: T9, Kappa-type opioid receptor; assay type: functional; remark: listed apart in the source
[19] = NIH/3T3 fibroblast cytotoxicity, dose response, cytotoxicity control for T. cruzi growth inhibitor project, cell-based, cherry-pick samples, set 2 (AID 651817); assay type: functional; settings: NIH3T3

Sequence of Nuclear receptor subfamily 5 group A member 2 (O00482 whole entry): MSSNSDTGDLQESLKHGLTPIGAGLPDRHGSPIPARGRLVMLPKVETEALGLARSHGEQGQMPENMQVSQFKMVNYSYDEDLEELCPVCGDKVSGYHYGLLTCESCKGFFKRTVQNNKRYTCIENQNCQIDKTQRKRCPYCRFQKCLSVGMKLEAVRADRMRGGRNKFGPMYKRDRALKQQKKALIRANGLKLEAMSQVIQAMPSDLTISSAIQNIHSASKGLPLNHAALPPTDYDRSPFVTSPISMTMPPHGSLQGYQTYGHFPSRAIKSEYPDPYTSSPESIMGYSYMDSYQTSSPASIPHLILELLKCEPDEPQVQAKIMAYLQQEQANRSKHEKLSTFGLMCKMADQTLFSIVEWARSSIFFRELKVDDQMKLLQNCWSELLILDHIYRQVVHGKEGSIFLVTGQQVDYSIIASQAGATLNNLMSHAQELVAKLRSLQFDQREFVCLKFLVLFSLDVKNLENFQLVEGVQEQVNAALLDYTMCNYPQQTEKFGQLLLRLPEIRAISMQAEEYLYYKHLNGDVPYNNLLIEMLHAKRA

## CCOCC(=O)Nc1ccc(S(=O)(=O)NCCc2ccccc2)cc1
[1]
  IC50: 18.4 µM (inactive)
[2]
  IC50: 35.9 µM (inactive)
Steroidogenic factor 1
  IC50: 5.7 µM (active)

## COc1cccc(N2CCN(C(=O)c3ccc(CSc4nc5cc[nH]cc-5n4)cc3)CC2)c1
[3]
  IC50: 65 µM (inactive)
[4]
  IC50: > 80 µM (inactive)
[5]
  IC50: 14.3 µM (active)

## O=C(NCc1nc2ccccc2[nH]1)C1=C[C@@H](C2CCCCC2)C[C@@H](OCc2ccc(CO)cc2)O1
[6]
  IC50: 2.85 µM (active)
[7]
  IC50: 38.9 µM (inactive)
[8]
  IC50: 6.42 µM (active)
INS1
  AC50: 13.1 µM (active)

## Cn1ccnc1Sc1cc(NCCCO)c([N+](=O)[O-])c2nonc12
[9]
  AC50: 8.37 µM (active)
[10]
  IC50: 5.86 µM (active)
[11]
  EC50: 13.2 µM (active)
Beta Lactamase
  IC50: 18.2 µM (inactive)
Protein RecA
  EC50: 3.32 µM (active)
[12]
  EC50: 11.8 µM (active)

## COc1cc(/C=C/c2sc3ccccc3[n+]2CCCS(=O)(=O)[O-])ccc1O
[9]
  AC50: > 380 µM (inactive)
Mu-type opioid receptor
  EC50: > 32 µM (inactive)
[13]
  IC50: > 32 µM (inactive)
[14]
  IC50: 20.5 µM (active)
[15]
  EC50: > 32 µM (inactive)
[16]
  CC50: 100 µM (active)
Protein RecA
  EC50: 16.2 µM (active)
[17]
  IC50: > 32 µM
Beta-galactosidase
  EC50: 14.1 µM (active)
[18]
  IC50: 19.1 µM (active)

## C[C@H](CO)N1C[C@H](C)[C@H](CN(C)S(=O)(=O)c2ccccc2)Oc2c(NC(=O)c3nc4ccccc4s3)cccc2C1=O
[19]
  AC50: 22.6 µM (active)
